Like-named read-outs stand apart in the source and are kept apart here. One block for each compound: values may come before it.
Tests used:
β-adrenergic receptors [1] = molecular target: T1, β-adrenergic receptors (Rattus norvegicus, UniProt P18090); test: Equilibrium saturation binding of (125I)-iodohydroxybenzylpindolol in treated and washed C6 glioma cells
T1 construct: β-adrenergic receptors in intact living cells; endogenous in cells; host or cells: C6 rat glioma cells, 2B subclone
Text: All washing experiments involving glioma cells utilized this salt solution as the wash medium.
It would be predicted that the occupation of a receptor by a specific ligand should be considered as an effective loss of that receptor provided that the ligand dissociates sufficiently slowly or not at all. […] For all data points, n=3.

β-adrenergic receptors [2] = molecular target: T1, β-adrenergic receptors; test: Displacement of specific (125I)-iodohydroxybenzylpindolol binding, acute or after washing, in intact C6 rat glioma cells
Description: For the study involving glioma cells, C6 rat glioma cells, 2B subclone were grown in monolayer cultures by the technique described by Terasaki et al, J. Biol. Chem., 253, 5418-5425 in 16 mm plastic cluster dishes. In all experiments, the cells were changed from Ham's F-10 containing 10% fetal bovine serum growth medium to a simple salt medium containing 130 mM NaCl, 4 mM KCl, 0.6 mM MgSO4, 0.3 mM CaCl2, 5 mM sodium phosphate buffer (pH 7.4). All washing experiments involving glioma cells utilized this salt solution as the wash medium.
In other test plates, the cells were pretreated with aminobenzylpropranolol blocking agent and then washed repeatedly over a period of 3 hours at 37° C. before determination of [^125 I]-iodohydroxybenzylpindolol binding. For all points, n=3, which means that each data point is an average of three separate determinations. […] (This value was corrected for competition by (^125 I)-iodohydroxybenzylpindolol).

[3] = test system: isolated atria (β-adrenergic receptors); test: Contractility of isolated atria, species not distinguished; type: cell-based, rat or guinea pig
Description: For the tests atrial preparations were obtained by excising hearts from 200-250 g male Wistar rats or 300-400 g male Hartley guinea pigs. All of the animals were pretreated with reserpine (5 mg/kg) administered interperitoneally 15-18 hours before the animals were killed by a blow to the back of the neck. Left atria were maintained at 30° C. […] The buffer was vigorously bubbled with 95% O2 -5% CO2. Atria hooked to platinum-iridium electrodes were stimulated at 1 second intervals with 10 msec monophasic pulses at twice the threshold voltage for contractions. Developed tension was recorded on Beckman oscillographic recorders (Dynographs) and the signals processed by a DEC LSI-11 microcomputer. […] The inhibition is time and dose dependent. […] The cumulative dose response curves to (-)-isoproterenol were determined (n=2-3). At the termination of each experiment, maximum tension was determined by exposing atria to 100 μM isobutylmethylxanthine. […] The degree of inhibition was similar to that observed in glioma cells. […] (2) Efficacy was also assessed by using the phosphodiesterase inhibitor, isobutylmethylxanthine, which is able to elicit a maximal response by itself.

guinea pig atria = test: Positive inotropic response of isolated guinea pig atria to histamine; type: cell-based; conditions: guinea pig atria pretreated with aminobenzylpropranolol
Description: Experiments were also conducted to determine the extent of aminobenzylpropranolol antagonism to isoproterenol-stimulated contractility in isolated atria. For the tests atrial preparations were obtained by excising hearts from 200-250 g male Wistar rats or 300-400 g male Hartley guinea pigs. All of the animals were pretreated with reserpine (5 mg/kg) administered interperitoneally 15-18 hours before the animals were killed by a blow to the back of the neck. Left atria were maintained at 30° C. (pH 7.4) in buffer containing: 118 mM NaCl, 4.75 mM KCl, 1.2 mM KH2 PO4, 1.2 mM MgSO4, 5.5 mM dextrose, 25 mM NaHCO3, and 1 mM CaCl2. The buffer was vigorously bubbled with 95% O2 -5% CO2. Atria hooked to platinum-iridium electrodes were stimulated at 1 second intervals with 10 msec monophasic pulses at twice the threshold voltage for contractions. Developed tension was recorded on Beckman oscillographic recorders (Dynographs) and the signals processed by a DEC LSI-11 microcomputer.
FIG. 4 contains the cumulative dose response curves to histamine treated atria (n=2-3).

[4] = test system: intracellular cyclic AMP in isoproterenol-treated glioma cells (β-adrenergic receptors); test: Isoproterenol-stimulated intracellular cyclic AMP accumulation in pretreated, washed C6 glioma cells; type: cell-based, rat; conditions: for increase of apparent activation constant for isoproterenol: 40 minutes, then washed 3 hours at 37° C.
Description: The ability of the present β-adrenergic receptor blocking compound to function as an effective β-adrenergic blocking agent for the selective elimination of cellular β-adrenergic receptors is apparent from the following study on the interaction of aminobenzylpropranolol with glioma cells and mammalian atrium cells. For the study involving glioma cells, C6 rat glioma cells, 2B subclone were grown in monolayer cultures by the technique described by Terasaki et al, J. Biol. Chem., 253, 5418-5425 in 16 mm plastic cluster dishes. In all experiments, the cells were changed from Ham's F-10 containing 10% fetal bovine serum growth medium to a simple salt medium containing 130 mM NaCl, 4 mM KCl, 0.6 mM MgSO4, 0.3 mM CaCl2, 5 mM sodium phosphate buffer (pH 7.4). All washing experiments involving glioma cells utilized this salt solution as the wash medium. In experiments involving the glioma cells, specific (propranolol-displaceable) binding of (^125 I)-iodohydroxybenzylpindolol to C6 rat glioma cells was performed by the method developed by Terasaki et al (see above reference) with the exception that in all solutions phentolamine was omitted, and at the termination of the radioligand binding reaction, 0.1 mM (±)-propranololwas included in the cell wash solution.
In the study glioma cells were treated for 40 minutes with zero, 0.1 μM (Δ) or 1 μM aminobenzylpropranolol and then washed with salt solution for 3 hours at 37° C. After washing, the cells were treated for 20 minutes with ((-)-isoproterenol) and extracted with HCl to determine the amount of cyclic AMP. For all data points, n=3.

[5] = test system: rat atria (β-adrenergic receptors); test: Isoproterenol-increased tension development in isolated rat atria; type: cell-based; conditions: for EC50: Rattus norvegicus, control rat atria, read-out: apparent KAct of isoproterenol
Description: (§1) For the tests atrial preparations were obtained by excising hearts from 200-250 g male Wistar rats or 300-400 g male Hartley guinea pigs. All of the animals were pretreated with reserpine (5 mg/kg) administered interperitoneally 15-18 hours before the animals were killed by a blow to the back of the neck. Left atria were maintained at 30° C. […] The buffer was vigorously bubbled with 95% O2 -5% CO2. Atria hooked to platinum-iridium electrodes were stimulated at 1 second intervals with 10 msec monophasic pulses at twice the threshold voltage for contractions. Developed tension was recorded on Beckman oscillographic recorders (Dynographs) and the signals processed by a DEC LSI-11 microcomputer. […] The inhibition is time and dose dependent. […] The cumulative dose response curves to (-)-isoproterenol were determined (n=2-3). At the termination of each experiment, maximum tension was determined by exposing atria to 100 μM isobutylmethylxanthine.

[6] = test system: guinea pig atria (β-adrenergic receptors); test: Isoproterenol-increased tension development in isolated guinea pig atria; type: cell-based; conditions: for shift in cumulative isoproterenol dose response curve: guinea pig atria
Description: as §1

[7] = test system: cat papillary muscle (β-adrenergic receptors); conditions: cited from earlier work
[8] = test system: β-adrenergic receptors of guinea pig taenia; conditions: receptors photolyzed with isoproterenol or 2-(2-hydroxy-3-isopropylaminopropoxy) iodobenzene; cited from earlier work
[9] = 1 μM for 50 minutes prior to washing
[10] = blocked by N-[2-hydroxy-3-(1-naphthoxy)-propyl]-N-bromoacetylethylenediamine

T1 sequence (P18090 whole entry): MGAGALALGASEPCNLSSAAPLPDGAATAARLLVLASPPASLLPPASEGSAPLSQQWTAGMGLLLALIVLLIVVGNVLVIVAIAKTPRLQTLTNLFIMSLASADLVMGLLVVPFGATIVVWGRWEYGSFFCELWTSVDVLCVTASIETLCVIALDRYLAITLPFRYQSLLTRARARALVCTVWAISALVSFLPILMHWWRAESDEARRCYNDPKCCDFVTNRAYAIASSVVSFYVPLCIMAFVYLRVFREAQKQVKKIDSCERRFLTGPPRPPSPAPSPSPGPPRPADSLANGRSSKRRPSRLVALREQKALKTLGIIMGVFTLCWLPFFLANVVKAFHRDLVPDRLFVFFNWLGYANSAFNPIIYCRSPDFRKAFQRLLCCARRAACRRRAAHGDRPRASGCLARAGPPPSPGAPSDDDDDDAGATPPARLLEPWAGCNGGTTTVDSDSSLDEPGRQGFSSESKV

Compound: CC(C)(Cc1ccc(O)c(I)c1)NCC(O)COc1cccc2[nH]ccc12 (stereo not shown) [(^125 I)-iodohydroxybenzylpindolol, reference compound]
Kd (β-adrenergic receptors [1]; glioma cells, not different between treated and control, read-out: equilibrium dissociation constant (KD) for (125I)-iodohydroxybenzylpindolol): 0.06 nM

Kd (β-adrenergic receptors [2]; 40 min at 37° C., corrected for competition by (125I)-iodohydroxybenzylpindolol, read-out: apparent KD in blocking one-half of the β-receptors): 8 nM | ability to block β-adrenergic receptors assayed acutely (vs after washing) (β-adrenergic receptors [2]; washed repeatedly over 3 hours at 37° C.): no significant difference | inhibition at 0.08 µM (β-adrenergic receptors [1]; 40 min, 80 nM, 40 minutes (37° C.), washed for 3 hours, read-out: maximum binding capacity diminished): 70% | maximum receptor binding (FIG. 2) (β-adrenergic receptors [1]; treated then washed with salt solution): marked reduction | sensitivity to isoproterenol of treated atria ([3]; 0.1 μM or 10 μM pretreatment, washed five times): decreased sensitivity to isoproterenol | efficacy (maximum response) of isoproterenol in treated atria ([3]; aminobenzylpropranolol-treated atria): unchanged | reversal of blockage by high concentrations of isoproterenol ([3]; multiple washes and rechallenges): did not reverse the blockage | maximal level of tension development ([3]; pretreated with 0.1 μM isoproterenol, washed, then 10 μM aminobenzylpropranolol): remained the same
Compound: CC(C)(Cc1ccc(N)cc1)NCC(O)COc1cccc2ccccc12 (stereo not drawn) [aminobenzylpropranolol, 1-(p-amino-α,α-dimethylphenethylamino)-3-(1-naphthoxy)-2-propanol]
antagonist potency, displacing (125I)-iodohydroxybenzylpindolol from β-adrenergic receptors (β-adrenergic receptors [2]; intact living glioma cells): relatively potent β-adrenergic antagonist | effect on affinity of the remaining receptors for (125I)-iodohydroxybenzylpindolol (β-adrenergic receptors [1]; 80 nM, 40 minutes (37° C.), washed for 3 hours): not accomplished by a change in the affinity | inhibitory activity in medium transferred from treated, washed atrium to fresh atrium ([3]; after washing): no inhibitory activity | positive inotropic response to histamine (guinea pig atria): unaltered | maximal attainable level of intracellular cyclic AMP ([4]; 0.1 μM and 1 μM): no change | increase of apparent activation constant for isoproterenol ([4]; 0.1 μM): 0.4 log units | increase of apparent activation constant for isoproterenol ([4]; 1 μM): 1.1 log units | increases in intracellular cyclic AMP in isoproterenol-treated glioma cells ([4]; only at submaximal concentrations of the catecholamine): inhibited | shift in cumulative isoproterenol dose response curve ([5]; 0.1 μM for 1 hour, rat atria): 0.5 log | fold increase in apparent KAct for isoproterenol ([5]; 1 μM for 5 minutes prior to washing): 1.2 fold | fold increase in apparent KAct for isoproterenol ([5]; 1 μM for 20 minutes prior to washing): 5.2 fold | fold increase in apparent KAct for isoproterenol [5, 9]: 13.5 fold | increase in apparent KAct for isoproterenol [5, 9]: 1.1 log units | rightward shift of isoproterenol dose response curves ([5]; 3 μM for 1 hour, washed 17 hours, 30° C.): 1.5 log units | decrease in inhibition of the isoproterenol response on extended washing ([5]; 3 μM for 1 hour, washed 17 hours, vs parallel washed control tissues): no detectable decrease | shift in cumulative isoproterenol dose response curve ([5]; 10 μM for 1 hour, rat atria): 2 log | onset of the inhibitory action ([5]; rat atria): slow | isoproterenol-increased tension development ([5]; time and dose dependent): inhibits | shift in cumulative isoproterenol dose response curve ([6]; 0.1 μM for 1 hour): 0.5 log | shift in cumulative isoproterenol dose response curve ([6]; 10 μM for 1 hour): 2 log | isoproterenol-increased tension development ([6]; time and dose dependent): inhibits

Compound: CC(C)Cn1c(=O)n(C)c(=O)c2[nH]cnc21 [isobutylmethylxanthine, reference compound]
increase in developed tension ([3]; 100 μM isobutylmethylxanthine added to atria treated with 10 μM isoproterenol): less than 5%

effect on tension in absence of inhibitor ([3]; 0.1 μM isoproterenol): maximally effective | EC50 ([5]; first dose response curve): 0.9 nM | EC50 ([5]; second dose response curve): 4.7 nM
Compound: CC(C)NCC(O)c1ccc(O)c(O)c1 (stereo not shown) [isoproterenol, N-isopropylnoradrenaline, reference compound]
inotropic and cyclic AMP responses to isoproterenol after irreversible block [7, 10]: maximal | potency of isoproterenol after irreversible block [7, 10]: decreased potency | desensitization on multiple exposures (decrease in potency for isoproterenol) ([3]; control atria, not pretreated with the inhibitor): small degree of desensitization | maximal relaxation by isoproterenol in photolyzed tissue [8]: maximal relaxation could still be elicited | potency of isoproterenol in photolyzed tissue [8]: potency was decreased

Compound: N-[2-hydroxy-3-(1-naphthoxy)-propyl]-N-bromoacetylethylenediamine
block of receptors ([7]; cat papillary muscle): irreversibly blocked
